Measured values taken from patent publication US6355799B1, “Substituted benzene compounds, process for their preparation, and herbicidal and defoliant compositions containing them” (ISK Americas Incorporated, priority 1997, dated 2002).

How the values were obtained:
Type in all cases: in vivo
[1] = tested on: redroot pigweed (Amaranthus retroflexus, AMARE); assay: Post-emerge test, greenhouse herbicide activity screening; details: rating scale 0-100 (0 no damage, 100 complete death), 14 days after application
In short: (§1)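 Each test used a mechanized track sprayer delivering 187 l/ha of acetone solution at 15–1000 g ai/ha. Post-emerge foliage at 2–3 leaves was treated with added 0.25% v/v non-ionic surfactant and bottom-watered only. Injury was assessed on day 14, where 100 means total kill.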

[2] = tested on: lambsquarters (Chenopodium album, CHEAL); assay: as above; details: rating scale 0-100 (0 no damage, 100 complete death), 14 days after application
In short: as §1

[3] = tested on: sicklepod (Cassia obtusifolia, CASOB); assay: as above; details: rating scale 0-100 (0 no damage, 100 complete death), 14 days after application
In short: as §1

[4] = tested on: velvetleaf (Abutilon theophrasti, ABUTH); assay: as above; details: rating scale 0-100 (0 no damage, 100 complete death), 14 days after application
In short: as §1

[5] = tested on: large crabgrass (Digitaria sanguinalis, DIGSA); assay: as above; details: rating scale 0-100 (0 no damage, 100 complete death), 14 days after application
In short: as §1

[6] = tested on: barnyardgrass (Echinochloa crus-galli, ECHCG); assay: as above; details: rating scale 0-100 (0 no damage, 100 complete death), 14 days after application
In short: as §1

[7] = tested on: ivyleaf morningglory (Ipomoea hederacea, IPOHE); assay: as above; details: rating scale 0-100 (0 no damage, 100 complete death), 14 days after application
In short: as §1

[8] = tested on: green foxtail (Setaria viridis, SETVI); assay: as above; details: rating scale 0-100 (0 no damage, 100 complete death), 14 days after application
In short: as §1

[9] = tested on: johnsongrass (Sorghum halepense, SORHA); assay: as above; details: rating scale 0-100 (0 no damage, 100 complete death), 14 days after application
In short: as §1

[10] = tested on: upland rice (Oryza sp., var. Tebonnet, RICE); assay: Pre-emerge test, crop safety; details: rating scale 0-100, 14 days after application
In short: (§2)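 Sandy loam pots; pre-emerge: sown 1 d pre-spray, surface-watered after, then bottom-watered. Post-emerge: sown 8–21 d before, 2–3 leaf stage, + 0.25% v/v NIS, bottom-watered. Acetone, 187 l/ha track spray, 15–1000 g ai/ha. 0–100 injury score, day 14.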

[11] = tested on: field corn (Zea mays L., var. Dekalb 535, CORN); assay: Pre-emerge test, crop safety; details: rating scale 0-100, 14 days after application
In short: as §2

[12] = tested on: upland rice (Oryza sp., var. Tebonnet, RICE); assay: Post-emerge test, crop safety; details: rating scale 0-100 (0 no damage, 100 complete death), 14 days after application
In short: (§3)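 Plants grown in 10 cm pots of sandy loam mix received acetone-dissolved compounds through a moving flat-fan nozzle. Doses ranged from 15 to 1000 g ai/ha. Pre-emerge pots were seeded one day earlier, post-emerge pots 8–21 days earlier. Fourteen days on, each pot was graded 0–100 for damage.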

[13] = tested on: field corn (Zea mays L., var. Dekalb 535, CORN); assay: Post-emerge test, crop safety; details: rating scale 0-100 (0 no damage, 100 complete death), 14 days after application
In short: as §3

[14] = tested on: lambsquarters (Chenopodium album, CHEAL); assay: Pre-emerge test, greenhouse herbicide activity screening; details: rating scale 0-100, 14 days after application
In short: (§4)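 Rating: 0–100 visual injury, 14 DAA. Application: acetone, 187 l/ha, 15–1000 g ai/ha, flat-fan track sprayer with nozzle 40–45 cm above soil or canopy. Post-emerge runs used 0.25% v/v surfactant on 2–3 leaf plants.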

[15] = tested on: sicklepod (Cassia obtusifolia, CASOB); assay: as above; details: rating scale 0-100, 14 days after application
In short: as §4

[16] = tested on: velvetleaf (Abutilon theophrasti, ABUTH); assay: as above; details: rating scale 0-100, 14 days after application
In short: as §4

[17] = tested on: large crabgrass (Digitaria sanguinalis, DIGSA); assay: as above; details: rating scale 0-100, 14 days after application
In short: as §4

[18] = tested on: barnyardgrass (Echinochloa crus-galli, ECHCG); assay: as above; details: rating scale 0-100, 14 days after application
In short: as §4

[19] = tested on: ivyleaf morningglory (Ipomoea hederacea, IPOHE); assay: as above; details: rating scale 0-100, 14 days after application
In short: as §4

[20] = tested on: green foxtail (Setaria viridis, SETVI); assay: as above; details: rating scale 0-100, 14 days after application
In short: as §4

[21] = tested on: johnsongrass (Sorghum halepense, SORHA); assay: as above; details: rating scale 0-100, 14 days after application
In short: as §4

[22] = tested on: redroot pigweed (Amaranthus retroflexus, AMARE); assay: as above; details: rating scale 0-100, 14 days after application
In short: as §2

With `COc1c(Cl)cc(F)c(-n2c(=O)cc(C(F)(F)F)n(C)c2=O)c1CC(Cl)C(=O)OCCC(C)C` (single isomer, unassigned) [14-16] as the compound, how does the “Post-emerge Herbicidal Activity, phytotoxicity rating AMARE” value ([1]; Rate 63 g ai/ha) read?
Its value is 60.

And the “Post-emerge Herbicidal Activity, phytotoxicity rating AMARE” value ([1]; Rate 250 g ai/ha)?
The value was 100.

And the “Post-emerge Herbicidal Activity, phytotoxicity rating CHEAL” value ([2]; Rate 63 g ai/ha)?
Its value is 95.

What about the “Post-emerge Herbicidal Activity, phytotoxicity rating CHEAL” value ([2]; Rate 250 g ai/ha) of the same compound?
Its value is 100.

What about the “Post-emerge Herbicidal Activity, phytotoxicity rating CASOB” value ([3]; Rate 63 g ai/ha) of the same compound?
The value was 20.

What about the “Post-emerge Herbicidal Activity, phytotoxicity rating CASOB” value ([3]; Rate 250 g ai/ha) of the same compound?
The value was 40.

What about the “Post-emerge Herbicidal Activity, phytotoxicity rating ABUTH” value ([4]; Rate 63 g ai/ha) of the same compound?
The value was 60.

And the “Post-emerge Herbicidal Activity, phytotoxicity rating ABUTH” value ([4]; Rate 250 g ai/ha)?
Its value is 100.

What about the “Post-emerge Herbicidal Activity, phytotoxicity rating DIGSA” value ([5]; Rate 63 g ai/ha) of the same compound?
The value was 90.

What about the “Post-emerge Herbicidal Activity, phytotoxicity rating DIGSA” value ([5]; Rate 250 g ai/ha) of the same compound?
Its value is 100.

What about the “Post-emerge Herbicidal Activity, phytotoxicity rating ECHCG” value ([6]; Rate 63 g ai/ha) of the same compound?
The value was 95.

What about the “Post-emerge Herbicidal Activity, phytotoxicity rating ECHCG” value ([6]; Rate 250 g ai/ha) of the same compound?
The value was 100.

What about the “Post-emerge Herbicidal Activity, phytotoxicity rating IPOHE” value ([7]; Rate 63 g ai/ha) of the same compound?
Its value is 40.

And the “Post-emerge Herbicidal Activity, phytotoxicity rating IPOHE” value ([7]; Rate 250 g ai/ha)?
The value was 50.

And the “Post-emerge Herbicidal Activity, phytotoxicity rating SETVI” value ([8]; Rate 63 g ai/ha)?
The value was 0.

What about the “Post-emerge Herbicidal Activity, phytotoxicity rating SETVI” value ([8]; Rate 250 g ai/ha) of the same compound?
Its value is 30.

And the “Post-emerge Herbicidal Activity, phytotoxicity rating SORHA” value ([9]; Rate 63 g ai/ha)?
The value was 0.

What about the “Post-emerge Herbicidal Activity, phytotoxicity rating SORHA” value ([9]; Rate 250 g ai/ha) of the same compound?
Its value is 30.

And the “Pre-emerge phytotoxicity rating, crop damage RICE” value ([10]; 63 g ai/ha)?
The value was 0.

And the “Pre-emerge phytotoxicity rating, crop damage RICE” value ([10]; 250 g ai/ha)?
Its value is 0.

And the “Pre-emerge phytotoxicity rating, crop damage CORN” value ([11]; 63 g ai/ha)?
Its value is 0.

What about the “Pre-emerge phytotoxicity rating, crop damage CORN” value ([11]; 250 g ai/ha) of the same compound?
Its value is 0.

What about the “Post-emerge phytotoxicity rating RICE (crop damage)” value ([12]; Rate 63 g ai/ha) of the same compound?
The value was 0.

And the “Post-emerge phytotoxicity rating RICE (crop damage)” value ([12]; Rate 250 g ai/ha)?
Its value is 10.

What about the “Post-emerge phytotoxicity rating CORN (crop damage)” value ([13]; Rate 63 g ai/ha) of the same compound?
Its value is 0.

And the “Post-emerge phytotoxicity rating CORN (crop damage)” value ([13]; Rate 250 g ai/ha)?
The value was 70.

What about the “Pre-emerge herbicidal activity, phytotoxicity rating CHEAL” value ([14]; 63 g ai/ha) of the same compound?
Its value is 100.

What about the “Pre-emerge herbicidal activity, phytotoxicity rating CHEAL” value ([14]; 250 g ai/ha) of the same compound?
Its value is 100.

And the “Pre-emerge herbicidal activity, phytotoxicity rating CASOB” value ([15]; 63 g ai/ha)?
Its value is 0.

What about the “Pre-emerge herbicidal activity, phytotoxicity rating CASOB” value ([15]; 250 g ai/ha) of the same compound?
Its value is 0.

What about the “Pre-emerge herbicidal activity, phytotoxicity rating ABUTH” value ([16]; 63 g ai/ha) of the same compound?
The value was 0.

What about the “Pre-emerge herbicidal activity, phytotoxicity rating ABUTH” value ([16]; 250 g ai/ha) of the same compound?
Its value is 90.

What about the “Pre-emerge herbicidal activity, phytotoxicity rating DIGSA” value ([17]; 63 g ai/ha) of the same compound?
The value was 50.

What about the “Pre-emerge herbicidal activity, phytotoxicity rating DIGSA” value ([17]; 250 g ai/ha) of the same compound?
The value was 100.

And the “Pre-emerge herbicidal activity, phytotoxicity rating ECHCG” value ([18]; 63 g ai/ha)?
The value was 0.

And the “Pre-emerge herbicidal activity, phytotoxicity rating ECHCG” value ([18]; 250 g ai/ha)?
Its value is 0.

And the “Pre-emerge herbicidal activity, phytotoxicity rating IPOHE” value ([19]; 63 g ai/ha)?
The value was 0.

What about the “Pre-emerge herbicidal activity, phytotoxicity rating IPOHE” value ([19]; 250 g ai/ha) of the same compound?
The value was 0.

What about the “Pre-emerge herbicidal activity, phytotoxicity rating SETVI” value ([20]; 63 g ai/ha) of the same compound?
Its value is 0.

What about the “Pre-emerge herbicidal activity, phytotoxicity rating SETVI” value ([20]; 250 g ai/ha) of the same compound?
Its value is 0.

And the “Pre-emerge herbicidal activity, phytotoxicity rating SORHA” value ([21]; 63 g ai/ha)?
Its value is 0.

What about the “Pre-emerge herbicidal activity, phytotoxicity rating SORHA” value ([21]; 250 g ai/ha) of the same compound?
The value was 0.

What about the “Pre-emerge herbicidal activity, phytotoxicity rating AMARE” value ([22]; 63 g ai/ha) of the same compound?
Its value is 100.

And the “Pre-emerge herbicidal activity, phytotoxicity rating AMARE” value ([22]; 250 g ai/ha)?
Its value is 100.
